The text below walks through data of patent US7662810B2, “2-arylmethylazetidine carbapenem derivatives and preparation thereof” (Korea Research Institute of Chemical Technology, priority 2004, dated 2010).

Molecules are shown by their SMILES.

The test system of series [1] is Enterobacter cloacae 1321 E. Nature of the series: Measurement of Minimum Inhibitory Concentration (MIC). Type of series: cell-based. The method, then: (§1) The antibacterial activities of the compounds of the present invention prepared in the above Examples against Gram-positive and Gram-negative bacteria, MRSA and QRS were tested as follows.
(§2) Respective bacterial strains were inoculated into 3 ml of Fleisch extract broth (beef extract 1%, peptone 1%, NaCl 0.3%, Na2HPO4.12H2O 0.2%, pH 7.4-7.5. 10% horse serum was supplemented for Streptococcus pyogenes and S. facium) and cultured on a shaking incubator at 37° C. for 18 hours. About 10^4 CFU/spot of the cultured bacterial strains were inoculated onto Müller-Hinton agar plates containing serial double dilutions (final concentration of 0.002 to 100 μg/ml) of a test compound employing an automatic inoculator (Dynatech, USA), and incubated at 37° C. for 18 hours. When the incubation was completed, the minimum inhibitory concentration was determined. Meropenem (Yuhan corporation, Korea) and vancomycin (Cj Inco., Korea) were used as standard antibiotics, respectively.

For series [2], the system named is Enterobacter cloacae P 99. Described as above. Type of series: cell-based. The method, then:
as §1, §2

For another series, the system named is Escherichia coli 078. The description is as above. Format: cell-based. How it is done:
as §1, §2

Another series has as its system Escherichia coli 1507 E. Described as above. Format: cell-based. The method, then: as §1, §2
The next series concerns Escherichia coli DC 0. The series is described as above. Format: cell-based. How it is done:
as §1, §2

The test system of the next series is Escherichia coli DC 2. The description is as above. Type of series: cell-based. How it is done: as §1, §2
In a further series the test system is Escherichia coli TEM. The description is as above. Format: cell-based. To be noted: Escherichia coli TEM. How it is done: as §1, §2
The test system of series [3] is Klebsiella aerogenes 1522 E. Described as above. Type of series: cell-based. How it is done: as §1, §2
In series [4] the test system is Klebsiella oxytoca 1082 E. The description is as above. Format: cell-based. The method, then: as §1, §2
Series [5] deals with Salmonella typhimurium 179. The series is described as above. Type of series: cell-based. To be noted: Salmonella typhimurium 179. How it is done:
as §1, §2

The subject of series [6] is Staphylococcus aureus 285. Described as above. Type of series: cell-based. The method, then: as §1, §2
Series [7] relates to Staphylococcus aureus 503. The description is as above. Format: cell-based. The method, then: as §1, §2
For series [8], the system named is Staphylococcus faecium MD 8b. The description is as above. To be noted: Staphylococcus faecium MD 8b. Type of series: cell-based. How it is done:
as §1, §2

Series [9] has as its system Staphylococcus pyogenes 308A. The description is as above. To be noted: Staphylococcus pyogenes 308A. Type of series: cell-based. How it is done: as §1, §2
Series [10] deals with Staphylococcus pyogenes 77A. The description is as above. Format: cell-based. The note with it: Staphylococcus pyogenes 77A. The method, then:
as §1, §2

The subject of series [11] is Staphylococcus aureus 121E. Nature of the series: Measurement of Minimum Inhibitory Concentration (MIC), MRSA. Format: cell-based. The note with it: Staphylococcus aureus 121E. How it is done:
as §1, §2

The subject of series [12] is Staphylococcus aureus 208E. The description is as above. Type of series: cell-based. The note with it: Staphylococcus aureus 208E. The method, then:
as §1, §2

The test system of series [13] is Staphylococcus aureus 256E. The description is as above. Format: cell-based. To be noted: Staphylococcus aureus 256E. The method, then: as §1, §2
In series [14] the test system is Staphylococcus aureus 690E. The description is as above. Format: cell-based. The note with it: Staphylococcus aureus 690E. How it is done: as §1, §2
Series [15] relates to Staphylococcus aureus 692E. The series is described as above. Format: cell-based. To be noted: Staphylococcus aureus 692E. How it is done:
as §1, §2

The test system of series [16] is Staphylococcus aureus 693E. Described as above. Format: cell-based. The note with it: Staphylococcus aureus 693E. The method, then:
as §1, §2

In series [17] the test system is Staphylococcus aureus 694E. The series is described as above. Type of series: cell-based. The note with it: Staphylococcus aureus 694E. How it is done: as §1, §2
Series [18] concerns Staphylococcus aureus 695E. The series is described as above. Type of series: cell-based. To be noted: Staphylococcus aureus 695E. How it is done: as §1, §2
Series [19] deals with Staphylococcus aureus 697E. Described as above. The note with it: Staphylococcus aureus 697E. Format: cell-based. How it is done:
as §1, §2

In series [20] the test system is Staphylococcus aureus 88E. The description is as above. Format: cell-based. To be noted: Staphylococcus aureus 88E. How it is done: as §1, §2
Series [21] concerns Staphylococcus aureus 179. Nature of the series: Measurement of Minimum Inhibitory Concentration (MIC), QRS. Type of series: cell-based. To be noted: QRS, Staphylococcus aureus 179. The method, then:
as §1, §2

Series [22] has as its system Staphylococcus aureus 241. The series is described as above. Format: cell-based. The note with it: QRS, Staphylococcus aureus 241. The method, then: as §1, §2
In series [23] the test system is Staphylococcus aureus 293. Described as above. Type of series: cell-based. The note with it: QRS, Staphylococcus aureus 293. How it is done:
as §1, §2

Series [24] concerns Staphylococcus epidermidis 178. The series is described as above. Format: cell-based. The note with it: QRS, Staphylococcus epidermidis 178. The method, then:
as §1, §2

Series [25] relates to Staphylococcus epidermidis 291. The series is described as above. To be noted: QRS, Staphylococcus epidermidis 291. Format: cell-based. How it is done: as §1, §2
A short description of series [26]: Test of Pharmacokinetics in Animals (mice). Type of series: in vivo. To be noted: mouse, in vivo, 40 mg/kg. How it is done: The pharmacokinetics of the carbapenem derivatives of the present invention was determined using mice. […] Standard antibiotic samples were prepared by serial two-fold dilution with control blood. […] PK (pharmacokinetic) change indicators (AUC, Tmax, Cmax and T1/2) of the test compound concentration remaining in the mouse blood over time were assayed over a set period.

The target in series [27] is T1, Dihydropeptidase-1 (DHP-1) (Sus scrofa, UniProt P22412).
T1 sequence (P22412 17-384): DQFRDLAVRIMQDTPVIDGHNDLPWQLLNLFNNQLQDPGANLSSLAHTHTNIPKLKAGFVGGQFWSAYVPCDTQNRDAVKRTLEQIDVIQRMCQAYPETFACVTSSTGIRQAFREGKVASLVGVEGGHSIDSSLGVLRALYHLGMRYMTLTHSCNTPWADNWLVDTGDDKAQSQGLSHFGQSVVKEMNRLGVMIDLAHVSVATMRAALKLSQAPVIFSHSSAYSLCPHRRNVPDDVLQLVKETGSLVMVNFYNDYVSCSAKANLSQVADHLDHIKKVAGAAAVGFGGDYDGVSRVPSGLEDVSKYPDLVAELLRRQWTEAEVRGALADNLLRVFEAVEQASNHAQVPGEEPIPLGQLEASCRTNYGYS
Description: (§3) The rate of degradation of the inventive compounds by the action of DHP-1 enzyme extracted from hog kidney was determined as follow.
(§4) 0.2 unit of the enzyme was allowed to react with the above solution at 30° C., and the absorbance at 299 nm of the remaining medicament was measured to determine the degradation rate. The absorbance was measured at 0, 0.5, 1, 2 and 4 hour points, and T1/2, the time when the concentration of the medicament become the half, was obtained by regression analysis.

Series [28] concerns the target T1, Dihydropeptidase-1 (DHP-1). Nature of the series: Sensitivity Assay Against Dihydropeptidase-1 (DHP-1). To be noted: pig, DHP-1 enzyme extracted from hog kidney.
Description: as §3, §4

With `C[C@@H](O)[C@H]1C(=O)N2C(C(=O)[O-])=C(SC3CN(Cc4ccccc4)C3)[C@H](C)[C@H]12.[K+]` [Exam. 13, Potassium(1R,5S,6S)-2-(1-benzyl-azetidine-3-yl-thio)-6-[(1R)-1-hydroxylethyl]-1-methylcarbapen-2-em-3-carboxylate], the MIC in series [1] was 0.049 µg/mL; in [2], 0.098 µg/mL; against Escherichia coli 078 it was 0.049 µg/mL; against Escherichia coli 1507 E, 0.049 µg/mL; in the series with Escherichia coli DC 0, 0.098 µg/mL; with Escherichia coli DC 2, 0.025 µg/mL. The MIC is 0.049 µg/mL in the series with Escherichia coli TEM; 0.098 µg/mL in [3]; 0.049 µg/mL in series [4]; 0.049 µg/mL in series [5]; 0.025 µg/mL in series [6]; 0.013 µg/mL in [7]. In addition, the MIC in series [8] turned out to be 1.563 µg/mL; in series [9] it was 0.002 µg/mL; in series [10], 0.002 µg/mL; in [11], 0.025 µg/mL; in [12], 0.049 µg/mL; in series [13], 0.013 µg/mL. Moreover, the minimum inhibitory concentration (MIC) came to 0.391 µg/mL in [14]; 0.025 µg/mL in series [15]; 3.125 µg/mL in series [16]; 1.563 µg/mL in series [17]; 0.391 µg/mL in series [18]; 0.025 µg/mL in series [19]. In addition, the MIC in series [20] came to 0.025 µg/mL; in [21], 0.049 µg/mL; in [22] it was 0.049 µg/mL; in series [23], 0.098 µg/mL; in series [24] it was 0.391 µg/mL; in series [25] it was 0.391 µg/mL. Moreover, the “AUC, times higher than meropenem” value in series [26] is recorded as 10 to 12 times. In series [26], the “increase in T1/2 than meropenem” value is recorded as “more than 2 times”. The “AUC (area under blood-medicament concentration curve till 24 hours from administration)” value was found to be 1730 ng·h/mL in series [26] (po) and 94760 ng·h/mL in series [26] (sc). For the same compound, the Cmax in series [26] (po) was determined as 1060 ng/mL; in [26] (sc) it was 86830 ng/mL. The entries for the “T1/2 (half time of blood-medicament concentration)” value in [26] (po) and in series [26] (sc) were 48.6 min and 55.2 min, respectively. The Tmax in [26] (po) was found to be 29.4 min; in series [26] (sc), 13.2 min. The “absorption through the oral route” value in series [26] (po) is “absorbed through the oral route to significant extents”. Also, the “T1/2 (time when the concentration of the medicament become the half)” value in series [27] amounted to 19.28.

In series [28], `C[C@@H](O)[C@H]1C(=O)N2C(C(=O)O)=C(SCCN=CN)C[C@H]12` [Imipenem, imipenem] showed a half-life at 500 μg/ml of 143 min.

A word on the MIC: it is the least concentration at which growth counts as inhibited. Read a high MIC as weaker potency. For orientation: Cmax means the highest concentration seen after dosing. As a reminder, the Tmax is the time from dosing to the highest level. The term half-life denotes how long it takes for the measured level to halve. A lower half-life goes with fast loss.
